Experimental data reported in US7264629B2, “Photodynamic therapy for the treatment of hair loss” (QLT, Inc., priority 2001, dated 2007).

Assays:
[1] = tested on: shaved female Balb/c mice; assay: Optimization of drug concentration, irradiation dose and light intensity on hair regrowth in shaved mice, topical QLT 0074; assay type: in vivo; conditions: for hair regrowth at the treatment site: 0.5% ointment
Protocol: A study was performed to assess the effect of drug concentration (0.005, 0.05, or 0.5% QLT 0074 ointment), light dose (50, 100 or 150 J/cm^2 red light) and light intensity 50 or 200 mW/cm) on hair regrowth in shaved female Balb/c mice. Mice received QLT 0074 ointment applied to the skin for 30 minutes, followed by a 15-minute treatment with placebo ointment and exposure to red light (688 nm). One group received no QLT 0074 ointment, only the placebo ointment and light exposure. Preparation of ointments and treatment procedure was as outlined in Example 2, except that different amounts of QLT 0074 were added.
Ointments were prepared as in Example 2, except that different amounts of QLT 0074 (on a weight/weight basis) were incorporated into the ointments. The treatment procedure was as outlined in Example 2.

[2] = tested on: human males with type II or III Vertex alopecia (AGA); assay: Stimulation of hair growth in human subjects with AGA (single topical PDT, terminal hair counts); assay type: in vivo; conditions: 0.2% w/w ointment, 50 and 75 J/cm^2; 10 subjects; during and after treatment
Protocol: A total of 10 subjects were treated. All subjects were human males over 18 years of age and had type II or III Vertex alopecia, rated according to the modified Hamilton-Norwood scale. All subjects received a single application of topical QLT0074 ointment 0.2% weight in weight (w/w) to two of three circular test sites on the vertex area of the scalp. The amount of ointment applied to each test site was approximately 224 mg (about 0.44 mg of photosensitizer per test site). After 2 hours the excess drug was removed and red light (LED's—690 nm) was administered to two of the three sites. The other test site served as a control with no drug or light administration.
Two light dose cohorts (50 and 75 J/cm^2) were investigated with each cohort having 5 subjects.
Safety was assessed by monitoring all adverse events during and after the treatment.
The efficacy was assessed by hair counts 3 months after the treatment and compared to baseline counts.

[3] = tested on: C3H/HeJ female mice exhibiting hair loss; assay: Stimulation of hair growth in a mouse model of alopecia areata (topical PDT); assay type: in vivo; conditions: 0.2% (w/w) ointment
From the text: A disease closely resembling human alopecia areata has been observed in aging (over 6-month old) C3H/HeJ mice (see Sundberg, J. P et al, Alopecia Areata in Aging C3H/HeJ Mice, Journal of Investigative Dermatology 102(6): 847-856 [1994[). […] All other areas outside of the treatment site were left untreated.
Following this treatment, all 3 mice received a dose of 50 J/cm^2 688 nm light delivered at a rate of 50 mw/cm^2 in the 1.5 square area. Mice were monitored for skin photosensitivity reactions on Days 1 and 3 after light exposure and observed for hair re-growth for up to 19 days post-treatment.

[4] = tested on: shaved Balb/C mice; assay: PDT-induced stimulation of hair growth using topically-applied photosensitizer in shaved Balb/c mice; assay type: in vivo
Protocol: To prepare QLT 0074-containing ointment, QLT 0074 photosensitizer was dissolved in glacial acetic acid to solubilize it. The solution was then frozen in a dry ice/isopropanol bath and the acetic acid was removed by lyophilization. The resultant material was a fine fluffy powder. […] The ointment base was prepared by first warming polyethylene glycol 200 (PEG 200) to 80-90° C. with stirring. Polyethylene glycol 3350 (PEG 3.35 K) was then added with stirring, followed by oleyl alcohol, and then diethylene glycol monoethyl ether. Stirring was continued until the solution was clear. The ointment base was cooled to approximately 50° C., and the QLT 0074 was added with stirring. Stirring was continued as the mixture cooled, until a homogenous paste was achieved. […]
Female Balb/C mice (8-14 weeks old) were supplied by Charles River Canada (St. Constance, Quebec). […] Mice were randomly assigned to PDT treatment and controlled groups, and were monitored for pain or distress.
Eighteen mice were shaved to remove hair from the back and both flanks. […] QLT 0074-containing ointment was applied to a square spot on the left side of each of mice 1-9 using a square template, with the same quantity of ointment applied to each spot. […]

[5] = tested on: patients; conditions: topical 0.5% HP and UVA three times a week; first week of treatment; two patients; cited from earlier work
[6] = tested on: alopecia areata patients; conditions: 2% khellin and UVA, cited from earlier work

With `C=Cc1c(C)c2cc3nc(cc4[nH]c(cc5nc(cc1[nH]2)C(C)=C5CCC(=O)OCCO)c(CCC(=O)OCCO)c4C)[C@@]1(C)C3=CC=C(C(=O)OC)[C@H]1C(=O)OC` [QLT 0074] the hair growth ([1]; 0.05% ointment, any light dose) was “did not exhibit hair growth”, the “hair regrowth at the treatment site” value ([1]; 50, 100 or 150 J/cm^2 at 200 mW/cm^2) was “Hair regrowth at the treatment site was observed” and the “hair regrowth at the treatment site” value ([1]; 50 or 100 J/cm^2 red light at 50 mW/cm^2) was “Hair regrowth at the treatment site was also observed”. For the same molecule, the “moderate or severe skin photosensitivity reactions” value ([1]; all drug and light dose combinations) was “no moderate or severe skin photosensitivity reactions were observed”, the “number of animals with hair regrowth at the treatment site” value ([1]; of three animals, 0.005% ointment, 150 J/cm^2 at 200 mW/cm^2) was “one” and the “skin reactions following treatment” value ([1]; some treatments, typically highest drug and light dose combinations) was “Mild skin reactions were evident”. For the same molecule, the serious adverse events [2] was “No serious adverse events were reported”, the skin photosensitivity reactions ([3]; 50 J/cm^2 688 nm at 50 mw/cm^2, Days 1 and 3 after light exposure) was “no skin photosensitivity reactions were observed” and the “number of mice with increased amount of hair in the treatment area” value ([3]; of the 3 mice treated, day 7 post-treatment, 50 J/cm^2 688 nm) was 2. For the same molecule, the “hair re-growth, representative mouse (FIG. 4)” value ([4]; 17 days after PDT treatment) was “Hair re-growth was observed” and the “number of mice that developed hair growth on the treated area by day 17” value ([4]; out of nine mice, 0.5% w/w ointment 30 min, 688 nm 50 J/cm^2 at 200 mW/cm^2) was “five”.

In the case of `CC1=C(CCC(=O)O)c2cc3[nH]c(cc4nc(cc5[nH]c(cc1n2)c(C)c5C(C)O)C(C)=C4C(C)O)c(C)c3CCC(=O)O` (centres unmarked) [hematoporphyrin, Hematoporphyrin], the “skin reactions in treated sites” value [5] is given as “significant erythema and mild scaling followed by hyperpigmentation”.

In the case of `COc1c2occc2c(OC)c2c(=O)cc(C)oc12` [khellin], the phototoxicity [6] is given as “did not cause phototoxicity” and the “number of patients treated successfully” value ([6]; of the 10 patients tested) is given as 5.
